Measurements: US6608103B2, “Inhibitor for neovasculation, cell multiplication, lumen formation and FGF” (Fuji Chemical Industry Co., Ltd., priority 2001, dated 2003)
Entries after “also recorded” stand apart in the source; their conditions may differ.

What was measured:
BAEC [1] = assay: Effects of tocotrienols on multiplication of BAEC, MTT assay; format: cell-based, bovine; details: for Absorbance: MTT, sample 10 μM
Protocol: Normal bovine aortic endothelial cells (BAEC) were manufactured by Cell Systems Co., and purchased through Dainippon Seiyaku Co., Ltd.
A cell suspension was prepared by adding the cells to MEM (Sigma Chemical Co.) containing 10 v/v (%) fetal bovine serum (FBS), 20 IU/ml penicillin and 20 IU/ml streptomycin (MEM+10% FBS) in a concentration of 1×10^5 cells/ml, and cultured in a 5% CO2 incubator at 37° C. by using a 60 mm dish coated with type I collagen with subculturing every 2 to 3 days.
Each of the above samples was added to MEM containing 2% (v/v) FBS, 20 IU/ml penicillin and 20 IU/ml streptomycin (MEM+2% FBS), and subjected to testing.
Effects of tocotrienols on the multiplication of BAEC were examined by using MTT assay.
(§1) Each one microplate was taken out after 0, 24, 48 or 96 hours from placing the culture medium containing a sample. In the case of the microplate taken out after 96 hours, the culture medium was once changed after 48 hours. 3 mg/ml MTT solution PBS (−) was put in each well in an amount of 50 μl/well, and incubated for 3 hours in a CO2 incubator. After filling each well with phosphate buffered saline (PBS(−)), liquid in each well was evacuated, and isopropyl alcohol containing 0.04 mol/l HCL was put in each well in an amount of 200 μl/well. The microplates were allowed to stand overnight in a dark place, and then, absorbance at 595 nm and 655 nm (dual) was measured by a microplate reader.
In the case of Control group A, no sample was added.

BAEC [2] = assay: Cell multiplication of BAEC, survival rate of cells using WST-1; format: cell-based, bovine; details: for Survival Rate of Cells (% of control): 24 hours, WST-1
Protocol: Influence of tocotrienols on cell multiplication of BAEC was examined in various concentrations. The cell multiplication was evaluated by determining the survival rate of cells using WST-1, which makes it possible to conduct high sensitivity measurement, instead of conventional MTT.
As a blank, the culture medium alone was incubated without adding cells. […] The microplate was taken out after 24 hours from placing the culture medium containing a sample. 10 μl/well of WST-1 solution was added to each well, and incubated in a CO2 incubator. After 3 hours, absorbance at 450 nm and 655 nm (dual) of each well was measured by a microplate reader.
The samples employed were DL-α-tocotrienol, DL-γ-tocotrienol and DL-δ-tocotrienol. In the case of Control group I, no sample was added.
The survival rate of cells was determined by the following formula:
Survival Rate of Cells=(S−B)/(C−B)×100(%)
The results of Table 10 were made in a graph shown in FIG. 1, and median growth inhibition concentration (IC50) was determined from the graph. In the figure, the numbers on the ordinate indicate the survival rate of cells (% of control), and the numbers on the abscissa indicate concentration (μM). ● is DL-α-tocotrienol, ▪ is DL-β-tocotrienol, Δ is DL-γ-tocotrienol, and X is DL-δ-tocotrienol, respectively.

BAEC [3] = assay: Cell damage action (LDH) with FGF added; details: FGF 20 ng/ml + sample 10 μM
Protocol: (§2) BAEC with confluent growth were treated with trypsin, and suspended in MEM | 10% FBS in a concentration of 5×10^4 cell/ml. The cell suspension was placed in each well of a 96 well-microplate in an amount of 100 μl/well, and incubated overnight in a CO2 incubator. The culture solution in each well was removed, and changed to 100 μl culture medium (MEM+2% FBS) containing a sample to continue incubation. In the experiment, MEM+2% FBS was employed as a negative control (NC), and 2% Tween 20 dissolved in MEM | 2% FBS was employed as a positive control (PC). After 48 hours, 50 μl culture medium in each well was transferred to a new well, and the color producing reagent in the kit was added to the new wells in an amount of 50 μl/well. After incubating for 45 minutes at room temperature, reaction was terminated by adding 100 μl of 0.5 N HCL/well, and absorbance at 595 nm was measured. The rate of cell damage was determined by the following formula:
(§3) Rate of Cell Damage=(S−N)/(P−N)×100(%)
Cell damage action of DL-α-tocotrienol, DL-β-tocotrienol, DL-γ-tocotrienol, DL-δ-tocotrienol and the tocotrienol mixture was examined against FGF. […] In Control group H, no sample was added.
The assay was carried out in the same manner as Example 36, except that the tocotrienol was replaced by α-tocopherol.

BAEC [4] = assay: Inhibition against lumen formation induced by FGF; format: cell-based, bovine; parameters: key to Lumen Formation: ↑: Accelerated; /: Tendency to increase; No change; ↓: Inhibited; ↓↓: Strongly inhibited
Protocol: (§4) Eight parts by volume of “Vitrogen Collagen” (Collagen Co.), 1 part by volume of 0.1 N NaOH and 1 part by volume of ×10 MEM (GIBCO BRL) were placed in a tube, and mixed quickly in an ice bath. The culture solution was removed by suction, and 0.5 ml/well of the above mixture containing collagen was pipetted into each well. The microplate was placed in a CO2 incubator for about 30 minutes to gelatinize it. 1.5 ml of a medium (MEM | 2% FBS) containing a sample was added, and continued to incubate while changing the medium every second day.
(§5) The variation of cells were observed by a microscope by taking a photograph, and lumen formation was evaluated by counting the number of branches of cells forming lumen.
The test was carried out similar to Examples 12-14, wherein FGF was added together with each tocotrienol. In the case of Control group E, no sample was added. […]

BAEC [5] = assay: Neovasculation / lumen formation of BAEC between two layers of type I collagen gel; format: cell-based, bovine
Protocol: BAEC was cultured between two layers of type I collagen gel, and a lumen-like netting structure formed therebetween was evaluated.
as §4, §5
The inhibition test against lumen formation was carried out in the same manner as Example 15, except that α-tocopherol was substituted for DL-α-tocotrienol.

BAEC [6] = assay: Inhibitory action against FGF activity, MTT assay on BAEC with FGF 20 ng/ml; format: cell-based, bovine; parameters: key to Cell Multiplication: ↑: Accelerated; /: Tendency to increase; No change; ↓: Inhibited; ↓↓: Strongly inhibited; details: for Absorbance: MTT, FGF 20 ng/ml + sample 10 μM
Protocol: The fibroblast growth factor sample was prepared by dissolving a commercial FGF (Sigma Chemical Co.) in MEM (Sigma Chemical Co.)
as §1
In the case of Control group B, no sample was added.

BAEC [7] = assay: Measurement of LDH activity, rate of cell damage of BAEC
Protocol: A rate of cell damage of BAEC by the sample was evaluated by measuring free LDH activity in a culture medium using a kit for LDH-cytotoxicity testing (Wako Co.)
as §2, §3
N: Absorbance of negative control
P: Absorbance of positive control
In Control group G, no sample was added.
The assay was carried out in the same manner as Example 30, except that the tocotrienol was replaced by α-tocopherol.

[8] = summary, FGF (20 ng/ml) + sample (10 μM)

In the case of `CC(C)=CCC/C(C)=C/CC/C(C)=C/CC[C@]1(C)CCc2cc(O)c(C)c(C)c2O1` (racemic) [DL-γ-Tocotrienol, γ-tocotrienol], the “inhibitory action against cell multiplication” value (BAEC [1]; 10 μM, Table 1) is reported as “remarkable inhibitory action”, the Absorbance (BAEC [1]; 0 hr) is reported as 0.101 ± 0.002 and the Absorbance (BAEC [1]; 24 hrs) is reported as 0.020 ± 0.001. For the same compound, the Absorbance (BAEC [1]; 48 hrs) was 0.010 ± 0.002, the Absorbance (BAEC [1]; 96 hrs) was 0.003 ± 0.000 and the “Survival Rate of Cells (% of control)” value (BAEC [2]; 10 μM) was 102.3 ± 10.8 % of control. The “Survival Rate of Cells (% of control)” value (BAEC [2]; 12 μM) was 15.5 ± 4.5 % of control, the “Survival Rate of Cells (% of control)” value (BAEC [2]; 14 μM) was 3.4 ± 3.1 % of control and the “Survival Rate of Cells (% of control)” value (BAEC [2]; 16 μM) was 0.0 ± 0.1 % of control. The “Survival Rate of Cells (% of control)” value (BAEC [2]; 18 μM) was 2.0 ± 2.8 % of control, the IC50 (BAEC [2]; determined from the graph of FIG. 1 (abscissa μM), read-out: median growth inhibition concentration (IC50)) was 11 µM and the “Rate of Cell Damage (% of control)” value (BAEC [3]) was 101.15 ± 2.38 % of control. The “inhibition of lumen formation induced by FGF” value (BAEC [4]; 10 μM + FGF 20 ng/ml) was “inhibited the lumen formation induced by FGF; also recorded: exhibit inhibitory action against lumen formation”, the “Number of Cells Forming Lumen/cm^2” value (BAEC [4]; sample 10 μM + FGF 20 ng/ml) was 12.50 ± 3.20 /cm^2 and the “Lumen Formation” value (BAEC [4]; [8]) was “↓”. For the same compound, the “inhibition of lumen formation” value (BAEC [5]; 10 μM) was “inhibited lumen formation sufficiently”, the “Number of Cells Forming Lumen/cm^2” value (BAEC [5]; Table 4, 10 μM) was 4.75 ± 0.48 /cm^2 and the Absorbance (BAEC [6]; 0 hr) was 0.042 ± 0.002. The Absorbance (BAEC [6]; 24 hrs) was 0.085 ± 0.004, the Absorbance (BAEC [6]; 48 hrs) was 0.232 ± 0.016 and the Absorbance (BAEC [6]; 96 hrs) was 0.431 ± 0.011. For the same compound, the “Cell Multiplication” value (BAEC [6]; [8]) was “↑”, the “activity to damage cells” value (BAEC [7]; 10 μM, Table 7) was “have an activity to damage cells” and the “Rate of Cell Damage (% of control)” value (BAEC [7]; Table 7, 10 μM, 48 hours) was 265.33 ± 3.18 % of control.
